Experimental data reported in BindingDB's records for doi:10.1021/acschembio.6b00962 (University of California Riverside, 2017).
Non-standard residues stand in square brackets, D forms with d. Residues, ends and D or L forms follow the SMILES beside them. ξ: configuration not given here. *: point of attachment. hCys = N[C@@H](CCS)C(=O)O; Dap = NC[C@H](N)C(=O)O; ξDap = NCC(N)C(=O)O; ClAc = O=C(CCl)*

Assays:
Assay in all cases: DELFIA
[1] = target: T1, Bcl-2-related protein A1 [1-149] (Human, UniProt Q16548)
T1 construct: 1-149
T1 sequence (Q16548 whole entry): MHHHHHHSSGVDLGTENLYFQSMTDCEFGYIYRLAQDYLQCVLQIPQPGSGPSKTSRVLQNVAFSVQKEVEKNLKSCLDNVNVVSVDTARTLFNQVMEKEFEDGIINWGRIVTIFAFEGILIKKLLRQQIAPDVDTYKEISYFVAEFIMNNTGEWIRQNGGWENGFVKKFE
Protocol: (§1) After 1 h of incubation at RT to allow the immunoreaction to complete, a second washing step allowed removal of the unbound protein in complex with Eu antibodies if displaced by a test compound. […] Each well received a final DMSO concentration equal to 1%. Protein, peptide, and antibody solutions were prepared in DELFIA assay buffer (PerkinElmer).

[2] = target: Isoform Bcl-X(L) of Bcl-2-like protein 1 (Bcl-xL) (Homo sapiens, UniProt Q07817)
Protocol: as §1

[3] = target: Apoptosis regulator Bcl-2 (Homo sapiens, UniProt P10415)
Protocol: as §1

[4] = target: Induced myeloid leukemia cell differentiation protein Mcl-1 (Homo sapiens, UniProt Q07820)
Protocol: as §1

Chain of Apoptosis regulator Bcl-2 (P10415 whole entry): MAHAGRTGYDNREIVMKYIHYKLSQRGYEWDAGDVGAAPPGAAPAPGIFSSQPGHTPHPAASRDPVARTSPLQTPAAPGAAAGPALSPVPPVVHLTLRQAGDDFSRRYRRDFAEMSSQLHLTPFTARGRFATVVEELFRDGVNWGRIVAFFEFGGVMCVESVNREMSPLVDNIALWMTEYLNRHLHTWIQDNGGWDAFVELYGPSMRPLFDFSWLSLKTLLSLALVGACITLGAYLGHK
Chain of Isoform Bcl-X(L) of Bcl-2-like protein 1 (Bcl-xL) (Q07817 whole entry G70A, canonical isoform): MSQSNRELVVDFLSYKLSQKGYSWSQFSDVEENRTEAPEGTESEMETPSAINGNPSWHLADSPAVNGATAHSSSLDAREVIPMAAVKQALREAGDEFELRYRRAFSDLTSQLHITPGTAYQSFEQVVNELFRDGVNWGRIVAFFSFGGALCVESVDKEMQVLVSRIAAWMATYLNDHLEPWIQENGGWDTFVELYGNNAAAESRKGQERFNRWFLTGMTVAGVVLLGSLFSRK
Chain of Induced myeloid leukemia cell differentiation protein Mcl-1 (Q07820 whole entry): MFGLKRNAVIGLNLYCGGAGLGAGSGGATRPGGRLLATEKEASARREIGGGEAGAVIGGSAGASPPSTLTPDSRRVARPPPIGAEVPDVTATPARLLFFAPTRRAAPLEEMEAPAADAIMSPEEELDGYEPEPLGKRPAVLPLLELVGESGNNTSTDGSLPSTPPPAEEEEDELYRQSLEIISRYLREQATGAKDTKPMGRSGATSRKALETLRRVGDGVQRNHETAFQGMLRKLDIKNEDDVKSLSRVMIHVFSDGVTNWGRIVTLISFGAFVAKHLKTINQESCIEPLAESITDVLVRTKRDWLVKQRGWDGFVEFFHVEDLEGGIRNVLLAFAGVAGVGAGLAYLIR

Molecule | IC50 [1] [µM] | IC50 [2] [µM] | IC50 [3] [µM] | IC50 [4] [µM] | Kd ([4]; pH 7.4, 25 °C) [µM] | Kd ([1]; pH 7.4, 25 °C) [µM] | Kd ([2]; pH 7.4) [µM]
CC[C@H](C)[C@H](NC(=O)[C@H](CCCCN)NC(=O)[C@H](CCCNC(=N)N)NC(=O)[C@H](CC(C)C)NC(=O)[C@H](CCC(N)=O)NC(=O)[C@H](C)NC(=O)[C@H](C)NC(=O)[C@H](Cc1ccccc1)NC(=O)[C@H](CCC(=O)O)NC(=O)[C@@H]1CCCN1C(=O)[C@@H]1CCCN1C(=O)[C@H](CC(C)C)NC(=O)[C@H](CCC(=O)O)NC(=O)[C@H](C)NC(C)=O)C(=O)NCC(=O)N[C@@H](CC(=O)O)C(=O)N[C@@H](CCCCN)C(=O)N[C@H](C(=O)N[C@@H](Cc1ccc(O)cc1)C(=O)N[C@@H](CS)C(N)=O)C(C)C | > 1 | > 1 | > 1 |  |  |  | 
CC[C@H](C)[C@H](NC(=O)[C@H](CCCNC(=N)N)NC(=O)[C@H](CCCNC(=N)N)NC(=O)[C@H](CC(C)C)NC(=O)[C@H](CCC(N)=O)NC(=O)[C@H](C)NC(=O)[C@H](CS)NC(=O)[C@H](CCC(=O)O)NC(=O)[C@H](CC(=O)O)NC(=O)[C@H](CCCCN)NC(=O)[C@H](CC(C)C)NC(=O)[C@H](CC(=O)O)NC(=O)[C@H](C)NC(=O)[C@@H]1CCCN1C(C)=O)C(=O)NCC(=O)N[C@@H](CC(=O)O)C(=O)N[C@@H](CCCCN)C(=O)N[C@H](C(=O)N[C@@H](CC(N)=O)C(=O)N[C@@H](CC(C)C)C(N)=O)C(C)C | 0.431 | > 1 | > 1 |  |  |  | 
CC[C@H](C)[C@H](NC(=O)[C@H](CCCNC(=N)N)NC(=O)[C@H](CCCNC(=N)N)NC(=O)[C@H](CC(C)C)NC(=O)[C@H](CCC(=O)O)NC(=O)[C@H](CCC(N)=O)NC(=O)[C@H](C)NC(=O)[C@@H](NC(=O)[C@H](CNC(=O)CCl)NC(C)=O)[C@@H](C)CC)C(=O)NCC(=O)N[C@@H](CC(=O)O)C(=O)N[C@@H](CCC(=O)O)C(=O)N[C@@H](Cc1ccccc1)C(=O)N[C@@H](CC(N)=O)C(=O)N[C@@H](C)C(=O)N[C@@H](Cc1ccc(O)cc1)C(=O)N[C@@H](Cc1ccc(O)cc1)C(=O)N[C@@H](C)C(=O)N[C@@H](CCCNC(=N)N)C(=O)N[C@@H](CCCNC(=N)N)C(N)=O [130E7] (Ac-[Dap](ClAc)IAQELRRIGDEFNAYYARR-NH2) | 0.0087 | 0.0465 | 0.027 |  |  | 0.0026 | 0.0255
CC[C@H](C)[C@H](NC(=O)C(CNC(=O)CCl)NC(C)=O)C(=O)N[C@@H](C)C(=O)N[C@@H](CCC(N)=O)C(=O)N[C@@H](CCC(=O)O)C(=O)N[C@@H](CC(C)C)C(=O)N[C@@H](CCCNC(=N)N)C(=O)N[C@@H](CCCNC(=N)N)C(=O)N[C@H](C(=O)NCC(=O)N[C@@H](CC(=O)O)C(=O)N[C@@H](CCC(=O)O)C(=O)N[C@@H](Cc1ccccc1)C(=O)N[C@@H](CC(N)=O)C(=O)N[C@@H](C)C(=O)N[C@@H](Cc1ccc(O)cc1)C(=O)N[C@@H](Cc1ccc(O)cc1)C(=O)N[C@@H](C)C(=O)N[C@@H](CCCNC(=N)N)C(=O)N[C@@H](CCCNC(=N)N)C(N)=O)[C@@H](C)CC (some centres not stated) [130E7] (Ac-[ξDap](ClAc)IAQELRRIGDEFNAYYARR-NH2) |  |  |  | 0.023 | 0.002 |  | 
CC(=O)NC(CNC(=O)CCl)C(=O)N[C@@H](C)C(=O)N[C@H](C(=O)N[C@@H](CCC(N)=O)C(=O)N[C@@H](CC(C)C)C(=O)N[C@@H](CCCNC(=N)N)C(=O)N[C@@H](CCCNC(=N)N)C(=O)N[C@@H](Cc1ccccc1)C(=O)NCC(=O)N[C@@H](CC(=O)O)C(=O)N[C@@H](CCCCN)C(=O)N[C@@H](CC(C)C)C(=O)N[C@@H](CC(N)=O)C(=O)N[C@@H](Cc1ccccc1)C(=O)N[C@@H](CCCNC(=N)N)C(=O)N[C@@H](CCC(N)=O)C(=O)N[C@@H](CCCCN)C(=O)N[C@@H](CC(C)C)C(=O)N[C@@H](CC(C)C)C(=O)N[C@@H](CC(N)=O)C(N)=O)[C@@H](C)O (some centres not stated) [λ_hNOXA] (Ac-[ξDap](ClAc)ATQLRRFGDKLNFRQKLLN-NH2) |  |  |  | 0.233 |  |  | 

The next lines start with results.

IC50 [1] [µM] | IC50 [2] [µM] | IC50 [3] [µM] | IC50 [4] [µM] | Kd ([4]; pH 7.4, 25 °C) [µM] | Molecule | Kd ([1]; pH 7.4, 25 °C) [µM] | Kd ([2]; pH 7.4) [µM]
> 1 |  |  | > 1 |  | CC1(C)CCC(CN2CCN(c3ccc(C(=O)NS(=O)(=O)c4ccc(NCC5CCOCC5)c([N+](=O)[O-])c4)c(Oc4cnc5[nH]ccc5c4)c3)CC2)=C(c2ccc(Cl)cc2)C1 |  | 
0.083 | > 1 | > 1 | 0.266 |  | CC(=O)N[C@@H](CCS)C(=O)N[C@@H](C)C(=O)N[C@H](C(=O)N[C@@H](CCC(N)=O)C(=O)N[C@@H](CC(C)C)C(=O)N[C@@H](CCCNC(=N)N)C(=O)N[C@@H](CCCNC(=N)N)C(=O)N[C@@H](Cc1ccccc1)C(=O)NCC(=O)N[C@@H](CC(=O)O)C(=O)N[C@@H](CCCCN)C(=O)N[C@@H](CC(C)C)C(=O)N[C@@H](CC(N)=O)C(=O)N[C@@H](Cc1ccccc1)C(=O)N[C@@H](CCCNC(=N)N)C(=O)N[C@@H](CCC(N)=O)C(=O)N[C@@H](CCCCN)C(=O)N[C@@H](CC(C)C)C(=O)N[C@@H](CC(C)C)C(=O)N[C@@H](CC(N)=O)C(N)=O)[C@@H](C)O (Ac-[hCys]ATQLRRFGDKLNFRQKLLN-NH2) |  | 
0.0139 | 0.22 | 0.199 | 0.032 |  | C=CCCC[C@](C)(NC(=O)[C@H](CC(=O)O)NC(=O)CNC(=O)[C@@H](NC(=O)[C@](C)(CCCC=C)NC(=O)[C@H](CCCNC(=N)N)NC(=O)[C@H](CC(C)C)NC(=O)[C@H](CCC(=O)O)NC(=O)[C@H](CCC(N)=O)NC(=O)[C@H](C)NC(=O)C(CNC(=O)CCl)NC(C)=O)[C@@H](C)CC)C(=O)N[C@@H](Cc1ccccc1)C(=O)N[C@@H](CC(N)=O)C(=O)N[C@@H](C)C(=O)N[C@@H](Cc1ccc(O)cc1)C(=O)N[C@@H](Cc1ccc(O)cc1)C(=O)N[C@@H](C)C(=O)N[C@@H](CCCNC(=N)N)C(=O)N[C@@H](CCCNC(=N)N)C(N)=O (some centres not stated) [130D11] |  | 
0.015 | > 1 | > 1 | > 1 |  | Ac-CATQLRRFGDKLN-NH2 |  | 
0.0075 | > 1 | > 1 | 0.228 |  | Ac-CATQLRRFGDKLNFRQKLLN-NH2 |  | 
